# Experimental data reported in patent publication US11673860B2, “Crystalline siponimod fumaric acid and polymorphs thereof” (TEVA PHARMACEUTICALS INTERNATIONAL GMBH, priority 2018, dated 2023).
# Test: Stability of the solid state form under stress conditions (high temperature and relative humidity)
# Format: physicochemical
# Conditions: stressed conditions, e.g. high temperature and relative humidity; solid to solid phase / polymorph transformation
# Source text: Pharmaceutical molecules may display solid to solid phase transformations and transformations between polymorphs; which may detected by exposure of the solid state form to stress conditions of e.g., high temperature and high relative humidity.
row,SMILES,thermodynamic and chemical stability of the solid state form
1,CCc1cc(/C(C)=N/OCc2ccc(C3CCCCC3)c(C(F)(F)F)c2)ccc1CN1CC(C(=O)O)C1.CCc1cc(/C(C)=N/OCc2ccc(C3CCCCC3)c(C(F)(F)F)c2)ccc1CN1CC(C(=O)O)C1.O=C(O)/C=C/C(=O)O [Crystalline Siponimod fumaric acid],thermodynamically stable and steady under stressed conditions
2,CCc1cc(/C(C)=N/OCc2ccc(C3CCCCC3)c(C(F)(F)F)c2)ccc1CN1CC(C(=O)O)C1.CCc1cc(/C(C)=N/OCc2ccc(C3CCCCC3)c(C(F)(F)F)c2)ccc1CN1CC(C(=O)O)C1.O=C(O)/C=C/C(=O)O [crystalline Form 7 of Siponimod fumaric acid],thermodynamically and chemical stable
